Consider 17 molecules from ChEMBL document CHEMBL4177601, “Dual antioxidant structures with potent anti-inflammatory, hypolipidemic and cytoprotective properties” (Bioorg Med Chem Lett, 2017).

One experiment relates to Mus musculus. The experiment can be described thus: Anti-inflammatory activity in Balb/C mouse assessed as reduction in carrageenan-induced hind paw oedema at 0.15 mmol/kg, ip pretreated for 1 hr followed by carrageenan challenge. Also noted: scale not given: the % may be the effect or the level left. The format is functional. Background: In the carrageenan paw model, swelling and tenderness develop within hours.

The nature of experiment [1]: Antioxidant activity assessed as DPPH radical scavenging activity at 25 to 200 uM measured after 30 mins. The format is functional.
The subject of experiment [2] is Liver. In words: Antioxidant activity in rat hepatic microsomes assessed as inhibition of FeSO4-induced lipid peroxidation at 1 to 1000 uM measured after 45 mins by spectrophotometry. It counts as functional. The conditions noted are these: microsome.
Experiment [3] can be described thus: Antioxidant activity assessed as DPPH radical scavenging activity at 200 uM measured after 30 mins relative to control. It counts as functional. Background: Loss of DPPH colour is used to gauge radical scavenging.
Experiment [4] relates to Rattus norvegicus. The experiment can be described thus: Anti-inflammatory activity in rat assessed as reduction in carrageenan-induced hind paw oedema at 0.15 mmol/kg, ip pretreated for 5 mins followed by carrageenan challenge measured after 3.5 hrs. It counts as functional. Also noted: scale not given: the % may be the effect or the level left.
A short description of experiment [5]: Antioxidant activity assessed as DPPH radical scavenging activity at 50 uM measured after 30 mins relative to control. The format is functional.
Experiment [6] in a line: Antioxidant activity assessed as DPPH radical scavenging activity at 100 uM measured after 30 mins relative to control. The format is functional.
The target of a further experiment is Lipoxygenase (Glycine max, UniProt Q39829). The experiment can be described thus: Inhibition of soybean lipoxygenase using sodium linoleate as substrate measured after 7 mins.
The subject of experiment [7] is Liver. The experiment can be described thus: Antioxidant activity in rat hepatic microsomes assessed as inhibition of FeSO4-induced lipid peroxidation measured after 45 mins by spectrophotometry. It counts as functional, microsome. As to conditions: 0.75 h.
Experiment [8] relates to Rattus norvegicus. In words: Hypolipidemic activity in triton WR1339-induced rat model of hyperlipidemia assessed as reduction in plasma total triglyceride level at 150 umol/kg, ip administered after 1 hr post triton WR1339 challenge measured after 24 hrs relative to control. The format is functional. Also noted: scale not given: the % may be the effect or the level left.

Experiment [9] relates to Rattus norvegicus. In words: Protection against paracetamol-induced liver injury in rat assessed as reduction in plasma LDH level at 1 mmol/kg, po measured at 24 hrs post paracetamol challenge relative to control. The format is functional. Also noted: scale not given: the % may be the effect or the level left.
Experiment [10] has as its system Rattus norvegicus. In words: Hypolipidemic activity in triton WR1339-induced rat model of hyperlipidemia assessed as reduction in plasma total cholesterol level at 150 umol/kg, ip administered after 1 hr post triton WR1339 challenge measured after 24 hrs relative to control. The format is functional. Also noted: scale not given: the % may be the effect or the level left.

In experiment [11] the test system is Rattus norvegicus. In words: Protection against paracetamol-induced liver injury in rat assessed as reduction in plasma GPT level at 1 mmol/kg, po measured at 24 hrs post paracetamol challenge relative to control. It counts as functional. Further details: scale not given: the % may be the effect or the level left.
Experiment [12] deals with Liver. The experiment can be described thus: Potency index, ratio of trolox IC50 to test compound IC50 for inhibition FeSO4-induced lipid peroxidation in rat hepatic microsomes. It counts as functional. As to conditions: microsome.
Experiment [13] has as its system Rattus norvegicus. In words: Protection against paracetamol-induced liver injury in rat assessed as reduction in plasma GOT level at 1 mmol/kg, po measured at 24 hrs post paracetamol challenge relative to control. The format is functional. Further details: scale not given: the % may be the effect or the level left.

Active and inactive are the calls of the source. No cut-off for these calls is given here.

For `CCOC(=O)[C@@H](N)CS`, the Activity in the experiment on Mus musculus was found to be 25%.
For the molecule `CCOC(=O)C(CSSCC(NC(=O)/C=C/c1ccccc1)C(=O)OCC)NC(=O)/C=C/c1ccccc1` (stereo unspecified), the outcome in [1] was Active. The inhibition result in the experiment on Liver [2] was “inactive”.
By IC50 is commonly meant the concentration that inhibits the measured activity by half. With `CC(C)(C)c1cc(C(=O)NCCS)cc(C(C)(C)C)c1O`, the Activity in experiment [3] amounted to 85%; with Rattus norvegicus [4], 87%; in experiment [5], 20%; in experiment [6], 45%. The IC50 on Lipoxygenase came out at 121 µM; in the experiment with Liver [7], 45 µM.
For the molecule `CCOC(=O)C(CS)NC(=O)/C=C/c1ccccc1` (stereo unspecified), the Activity in experiment [3] is 86%; with Rattus norvegicus [4], 35%; in experiment [5], 27%; in [6], 42%. In addition, the inhibition entry in the experiment with Liver [2] is “inactive”.
As to `Cc1c(C)c2c(c(C)c1O)CCC(C)(C(=O)NCCS)O2` (stereo unspecified), the Activity in the experiment on Rattus norvegicus [8] came out at 47.3%; in the experiment with Rattus norvegicus [9], 70%; in [3] it was 93%; in the experiment on Rattus norvegicus [4], 67%; in the experiment on Rattus norvegicus [10], 67.1%; with Rattus norvegicus [11], 15%. In addition, the Activity was determined as 61% in experiment [5], 92% in [6] and 26% in the experiment on Rattus norvegicus [13]. Also, in the experiment with Liver [12], the Ratio IC50 was 10. Also, the IC50 in the experiment on Liver [7] was found to be 1.6 µM.
As for `CC(C)(C)c1cc(C(=O)NCCSSCCNC(=O)c2cc(C(C)(C)C)c(O)c(C(C)(C)C)c2)cc(C(C)(C)C)c1O`, the result in experiment [1] was Active. Moreover, the inhibition result in the experiment on Liver [2] is “inactive”.
With `CC(C)Cc1ccc(C(C)C(=O)O)cc1` (stereo unspecified) [IBUPROFEN], the Activity in the experiment on Rattus norvegicus [4] is given as 36%.
`CCOC(=O)C(CS)NC(=O)/C=C/c1cc(C(C)(C)C)c(O)c(C(C)(C)C)c1` (stereo unspecified): the Activity in experiment [3] came out at 96%; in the experiment on Rattus norvegicus [4], 61%; in experiment [5] it was 37%; in experiment [6], 70%. Further, the IC50 against Lipoxygenase was 135 µM; with Liver [7], 40 µM.
Turning to `CC(C)(C)c1cc(/C=C/C(=O)NCCS)cc(C(C)(C)C)c1O`, the Activity in experiment [3] was found to be 92%; in the experiment on Rattus norvegicus [4], 67%; in experiment [5], 34%; in experiment [6] it was 60%. Further, the IC50 was 160 µM on Lipoxygenase and 30 µM in the experiment on Liver [7].
For `CCOC(=O)C(CS)NC(=O)C1(C)CCc2c(C)c(O)c(C)c(C)c2O1` (stereo unspecified), the Activity came out at 72.3% with Rattus norvegicus [8]; 78% in the experiment on Rattus norvegicus [9]; 93% in experiment [3]; 39% in the experiment with Rattus norvegicus [4]; 73% in the experiment with Rattus norvegicus [10]; 64% in the experiment with Rattus norvegicus [11]. Also, the Activity in experiment [5] is 61%; in experiment [6] it was 91%; with Rattus norvegicus [13] it was 70%. For the same molecule, in the experiment with Liver [12], the Ratio IC50 was found to be 10. In addition, the IC50 with Liver [7] turned out to be 3 µM.
Consider `O=C(/C=C/c1ccccc1)NCCSSCCNC(=O)/C=C/c1ccccc1`, for which, in the experiment with Rattus norvegicus [4], the Activity is reported as 42%. In [1], the outcome was Active. Besides, the inhibition entry with Liver [2] is “inactive”.
On the same counts, the results for `CCOC(=O)C(CSSCC(NC(=O)c1cc(C(C)(C)C)c(O)c(C(C)(C)C)c1)C(=O)OCC)NC(=O)c1cc(C(C)(C)C)c(O)c(C(C)(C)C)c1` (stereo unspecified) are 36%, “Active” and “inactive”.
Take `NCCS` [CYSTEAMINE]: the Activity in the experiment with Mus musculus came out at 15%.
For the molecule `O=C(/C=C/c1ccccc1)NCCS`, the Activity in [3] was 86%; in the experiment on Rattus norvegicus [4], 38%; in experiment [5], 31%; in [6], 59%. Also, in the experiment on Liver [2], the inhibition entry is “inactive”.
For `Cc1c(C)c2c(c(C)c1O)CCC(C)(C(=O)O)O2` (stereo unspecified) [TROLOX], the IC50 with Liver [7] came to 25 µM.
Same read-out and setting: under `CC(C)(C)c1cc(C(=O)O)cc(C(C)(C)C)c1O` stands 250 µM.
For the molecule `CCOC(=O)C(CS)NC(=O)c1cc(C(C)(C)C)c(O)c(C(C)(C)C)c1` (stereo unspecified), the Activity in experiment [3] came out at 85%; in the experiment with Rattus norvegicus [4], 59%; in experiment [5], 23%; in experiment [6], 46%. Further, the figures for the IC50 against Lipoxygenase and with Liver [7] were 67 µM and 200 µM, respectively.
